Measurements from patent US20220268782A1, “METHODS FOR PREDICTING AND TREATING CARDIAC DYSFUNCTION” (INSERM (INSTITUT NATIONAL DE LA SANTÉ EAT DE LA RECHERCHE …, priority 2019, published 2022).

Columns and labels:
C2C12 myoblasts = test: PA-induced senescence in C2C12 myoblasts (immunoblot of senescence markers, EdU incorporation); assay type: cell-based; conditions: C2C12 cells
Method: (§1) Cells were washed briefly with ice-cold 1×PBS, scraped in 400 μL T-PER lysis buffer (ThermoFisher) supplemented with 0.1 mM phenylmethylsulphonyl fluoride (PMSF) and protease/phosphatase inhibitor cocktail tablet (ThermoFisher). Pulverised tissue samples (20-30 mg) were lysed in the same buffer accelerated by sonication and passing through a 21 G needle. To pellet any debris, lysates were centrifuged at 10,000 g for 10 minutes at 4° C., with the supernatant transferred to fresh tubes. Protein concentrations were determined with Bradford assay (Biorad) and lysates were diluted to equal concentration with lysis buffer. Protein lysates were then mixed with Laemmli buffer, vortexed and heated to 95° C. for 5 min. Equal amounts of protein lysates in parallel with protein molecular weight marker (ThermoFisher) were loaded onto pre-cast polyacrylamide gels (Nupage 10 or 12% Bis Tris gel, Novex, Invitrogen) and separated by electrophoresis at 200V for 1 hour. Proteins were transferred onto polyvinylidene difluoride (PVDF) membrane (Invitrogen) using an electrophoretic transfer cell (Mini Trans-Blot, Bio-Rad) in ice-cold transfer buffer (48 mM Tris base, […], 0.1% SDS, 20% methanol (v/v)) at 300 mA for 2 hours. Membranes were blocked in 1× skimmed milk (ThermoFisher) for 1 hour at room temperature, followed by overnight incubation with primary antibody diluted in blocking buffer at 4° C. Next day membranes were washed, followed by 60 minutes incubation in the corresponding horseradish peroxidase (HRP)-conjugated secondary antibody diluted 1:2000-10000 in blocking buffer (all Abcam). Blots were developed using enhanced chemiluminescence (ECL) reagents (normal, Prime & Select) and digital images were acquired using an imaging system (Azure Biosystems). Membranes were usually stripped of antibodies and reprobed with an antibody targeting a protein serving as loading control (α-actinin for hearts & β-actin for all others). For this procedure, membranes were placed in Guanidine-HCl-based stripping solution (6M Guanidine-HCl, 0.2% Nonidet P-40, 0.1M β-mercaptoethanol, 20 mM Tris-HCl, pH 7.5 and 100 mM 2-mercaptoethanol) and incubated for 10 minutes at room temperature with gentle agitation, followed by extensive washing and re-blocking.^5
C2C12 (ATCC® CRL-1772™) myoblasts maintained in DMEM supplemented with L-glutamine (2 mM), penicillin/streptomycin (1%) and 5% fetal bovine serum (FBS) were seeded either at a density of 5×10^4 cells (<50%) per well in 24-well plates or 10^4 cells in 4-well chamber slides. Cells were with L-phenylalanine (1-10 mM)+BH4 (10 μM) and incubation with increasing concentrations of N-acetylcysteine (0.5, 2.5, 5 mM) vs. vehicle overnight as indicated. Cells were analysed for oxidative stress with MitoSOX™ (mitochondrial superoxide; 5 μM, ThermoFisher Scientific), CellROX™ (cytosolic superoxide; 5 μM, ThermoFisher Scientific), gene or protein expression, or various metabolites (see below).

[1] = system: Myocardial nitric oxide synthase (NOS); test: Myocardial nitric oxide synthase activity in hearts of BH4-treated mice; assay type: in vivo; conditions: hearts of 12.5-month-old WT mice treated with BH4 or vehicle, FIG. 4i
Method: Myocardial nitric oxide synthase (NOS) activity was determined in hearts of 12.5-month-old WT mice treated with BH4 or vehicle using a commercial kit (Biovision). Briefly, pulverized heart aliquots were processed according to the manufacturer's instructions and fluorometric readouts (excitation: 360, emission: 450) were normalised to protein concentration determined by Bradford assay. Activity of recombinant NOS protein served as positive control.

AML-12 hepatocytes = test: AML-12 hepatocytes: p21, Pah immunoblot and tyrosine production; assay type: cell-based
Method: as §1
AML12 cells (ATCC® CRL-2254™) were maintained in DMEM/F-12 (1:1) culture media supplemented with 10% FBS, 10 μg/ml insulin, 5.5 μg/ml transferrin, 5 ng/ml selenium, 40 ng/ml dexamethasone and 1% penicillin/streptomycin. Cells were sub-cultivated from subconfluent flasks with a ratio from 1:4 to 1:8. For WB analysis, cells were plated on 6-well plates and harvested at 80-90% of confluence. AML12 cells were transfected with indicated siRNA (Table 2) at 80% confluence using Lipofectamine RNAiMAX Transfection Reagent (ThermoFischer Scientific 13778030) following the manufacturer's instructions. Transfection efficiency was constantly checked using BLOCK-IT Alexa Fluor Red Fluorescent Control (ThermoFischer Scientific 14750100).
Levels of reduced glutathione (GSH; ThermoFisher), phenylalanine (BioVision) and tyrosine (BioVision) were determined from cells or plasma, with respective agents/kits following the manufacturer's recommendations. Specifically, GSH levels were estimated with the aid of ThiolTracker™ Violet fluorescent probe (ThermoFisher). Plasma and liver phenylalanine levels were determined using an enzyme-coupled, fluorometric method (BioVision). Briefly, samples were deproteinized via trichloroacetate precipitation, neutralised, tyrosinase-treated (to remove tyrosine that may interfere) and diluted to fit in the standard curve. Fluorescence reading took place at 587 nm after excitation at 535 nm. Levels of tyrosine in cells or conditioned media were determined after deproteinization using 10 kDa cut-off columns with an enzyme-coupled, colorimetric method with reading at 491 nm (BioVision).

| SMILES | PA-dependent senescence (p21 protein, EdU incorporation) (C2C12 myoblasts; PA 5 mM + BH4 10 μM, FIG. 1c-d) | myocardial nitric oxide synthase activity [1] | Pah levels under Nutlin3a-induced senescence (AML-12 hepatocytes; Nutlin3a plus co-treatment, FIG. 4o, 4r) | tyrosine production / levels under Nutlin3a-induced senescence (AML-12 hepatocytes; Nutlin3a plus co-treatment, FIG. 4p, 4q) | other markers of senescence (Cdkn2a=p16 and phospho-p53=p-p53) (C2C12 myoblasts; PA 5 mM vs. vehicle, FIG. 1a) | cyclin-dependent kinase 1a (Cdkn1a=p21) protein (C2C12 myoblasts; PA 5 mM vs. vehicle, FIG. 1a-b) | EdU incorporation (C2C12 myoblasts; PA treatment, FIG. 1d) | p21 protein (AML-12 hepatocytes; increasing concentrations of PA (0-10 mM), FIG. 4n) |
| --- | --- | --- | --- | --- | --- | --- | --- | --- |
| CC(O)C(O)C1CNc2nc(N)[nH]c(=O)c2N1 (centres unmarked) [BH4, 2-amino-6-(1,2-dihydroxypropyl)-5,6,7,8-tetrahydro-3H-pteridin-4-one] | antagonised | without altering | derepressed | derepressed |  |  |  |  |
| N[C@@H](Cc1ccccc1)C(=O)O [PA, (S)-2-Amino-3-phenylpropanoic acid] |  |  |  |  | remained unaltered | selectively induced | suppressed | dose-dependent induction |
